# Data reported in PubChem BioAssay (NCI).
#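 Five concentrations, 48 hours, 96-well plates. GI50: concentration for 50% inhibition of growth. TGI denotes the concentration required for complete inhibition of growth.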
# Tested on: HCC-2998 colon
# Assay: NCI-60 cell line screen, 48 h
Structure (SMILES),TGI [µM],GI50 [µM]
NC(CCc1nc(-c2ccc(Cl)cc2)cs1)C(=O)O (stereo not given),> 100,–
O=C1NC2(CCCCC2)C2CCCCC(O)C12 (stereo not given),> 100,–
COc1ccc(-n2/c(=N/C(=S)N(C)C)ss/c2=N\C(=S)N(C)C)cc1,> 100,–
CCOC(=O)C1=C(C)CC2C(=O)OC(=O)C2C1(C)C (stereo not given),> 100,–
Oc1ccc(Cl)cc1-c1cc(-c2ccccc2Cl)[nH]n1,17.4,2.86
CCOC(=O)C(Sc1ccccc1)c1c(OC)cc(=O)oc1/C=[N+](/[O-])c1ccc(N(C)C)cc1 (stereo not given),58.7,–
COc1ccc2nc3cc(Cl)ccc3c(Sc3ccccc3[N+](=O)[O-])c2c1,> 100,–
O=C(O)C(Cc1ccccc1)N1C(=O)N/C(=C\c2ccc(F)cc2)C1=O (stereo not given),> 100,–
C/C(CCn1[nH]c(=O)ccc1=O)=N\O,> 100,–
COc1ccccc1NC(=O)CC(=O)n1nc(C)c(N=Nc2ccccc2C(=O)O)c1C,> 100,–
CC(=O)N1[C@H](C(=O)O)CS[C@H]1c1ccncc1,> 100,–
CC1(C)COC(c2ccc(C(F)(F)F)cc2C(O)c2ccc3ccccc3c2)=N1 (stereo not given),> 100,> 100
COc1ccc(NC(=O)c2cc(OC)cc(OC)c2)cc1,> 100,–
CC1(C)OC(=O)C(=Cc2ccc(O)cc2)C(=O)O1,> 100,–
COc1ccc(C2=CSc3cc(Cl)c(C)cc3S(=O)(=O)N2C(C)=O)cc1,69.5,27.1
COc1ccc(/C=C\c2cc(OC)c3c(c2)OCO3)c(O)c1O,> 58,–
CC(=O)OC1COC(n2c(=S)n(-c3ccc(C)cc3)c(=O)c3ccccc32)C(OC(C)=O)C1OC(C)=O (stereo not given),> 100,–
COc1cccc(NC(=O)CC(=O)n2nc(C)c(N=Nc3ccccc3)c2C)c1,> 100,–
CC[C@@]12CCCN3CC[C@]4(c5cccc(OC)c5N(C(C)=O)[C@@H]4CC1)[C@H]32,51.1,–
CC(=O)[O][Hg][c]1c(N)c(C)cc(C)c1F,4.87,2.28
O=C(O)CCSC(=O)Nc1cccc(F)c1,> 100,–
CCNC1C2(CCCCC2)NC(=O)C12CCCCC2 (stereo not given),> 100,–
O=C1C2=C(SCCS2)C(=O)c2ccccc21,3.11,–
c1cc2c(cc1NC1=NCCO1)CCC2,> 10,–

# Tested on: SF-539 CNS
# Assay: NCI-60 cell line screen, 48 h
Structure (SMILES),GI50 [µM],TGI [µM]
NC(CSC(c1ccccc1)(c1ccccc1)c1ccc2c(c1)OCO2)C(=O)O (stereo not given),0.392,> 41
C=CCc1cc(OC)c2c(c1)C(O)CC(c1ccc(OC)c(OC)c1)O2 (stereo not given),–,> 100
O=C(NCCNc1nccc(-c2c(-c3cccc(O)c3)nc3sccn23)n1)c1ccccc1O,7.27,24.5
CC(C)=CCCc1c(C)ccc2c1C(=O)C(=O)C(C(C)C)=C2,–,8.84
NS(=O)(=O)c1ccccc1C(=O)N/N=C(\c1nc2ccc([N+](=O)[O-])cc2[nH]c1=O)C(O)c1ccc([N+](=O)[O-])cc1 (stereo not given),–,> 100
N#CC(C#N)=c1ccc(=C2NCC3CCCN23)cc1 (stereo not given),–,> 100
CCOC(=O)COc1cccc2c1C(=O)CCO2,–,> 100
CSc1ccc(/C=C2\CN(C)C/C(=C\c3ccc(SC)cc3)C2=O)cc1,–,78.9
Nc1ccc(C(=O)N/C(=C\c2ccc3c(c2)OCO3)c2nc3[nH]c(=S)[nH]c(=O)c3[nH]2)cc1,–,> 100
COC(=O)[C@@]12C3=NO[C@]1(C(=O)OC)C(O[Si](C)(C)C(C)(C)C)[C@H]1OC(C)(C)O[C@H]1[C@@H]2C(OCc1ccccc1)CC3 (stereo not given in full),–,> 100
O=C(N/C(=C\c1cc(Cl)ccc1Cl)c1nc2[nH]c(=S)[nH]c(=O)c2[nH]1)c1ccccc1,–,> 76.7
CN(CC(=O)O)S(=O)(=O)c1ccc2ccccc2c1,–,> 100
CCN(CC)CC(C(=O)Nc1c(C)cccc1C)/C(C)=N\NC(=O)C[N+](C)(C)C (stereo not given),–,> 100
CC1=C(C(=O)Nc2ccccc2C)C(c2ccco2)C(C(=O)Nc2ccccc2C)=C(C)N1C,–,> 100
CC(=O)OC(C)C(=O)C1c2cccc(O)c2C(=O)c2c(O)cc(C)cc21 (stereo not given),–,0.589
O=[S@@]1Nc2ccc(Br)cc2S1,–,> 100
CC(=O)C(CN(C(C)C)C(C)C)C(c1ccccc1)c1c(O)c2ccccc2oc1=O (stereo not given),–,> 100
COc1ccc2c(c1)C1(C=N2)CCN(C(C)=O)CC1,–,> 100
O=C1NC2(CCCCC2)C2CCCCC(O)C12 (stereo not given),–,> 100
COc1ccc(-n2/c(=N/C(=S)N(C)C)ss/c2=N\C(=S)N(C)C)cc1,–,> 100

Structure (SMILES),GI50 [µM],TGI [µM]
CCOC(=O)C1=C(C)CC2C(=O)OC(=O)C2C1(C)C (stereo not given),–,> 100
CCOC(=O)C(Sc1ccccc1)c1c(OC)cc(=O)oc1/C=[N+](/[O-])c1ccc(N(C)C)cc1 (stereo not given),–,56.9
COc1ccc2nc3cc(Cl)ccc3c(Sc3ccccc3[N+](=O)[O-])c2c1,–,> 100
O=C(O)C(Cc1ccccc1)N1C(=O)N/C(=C\c2ccc(F)cc2)C1=O (stereo not given),–,> 100
C/C(CCn1[nH]c(=O)ccc1=O)=N\O,–,> 100
COc1ccccc1NC(=O)CC(=O)n1nc(C)c(N=Nc2ccccc2C(=O)O)c1C,–,> 100
CC(=O)N1[C@H](C(=O)O)CS[C@H]1c1ccncc1,–,> 100
CC1(C)COC(c2ccc(C(F)(F)F)cc2C(O)c2ccc3ccccc3c2)=N1 (stereo not given),–,> 100
COc1ccc(NC(=O)c2cc(OC)cc(OC)c2)cc1,–,> 70.3
CC1(C)OC(=O)C(=Cc2ccc(O)cc2)C(=O)O1,–,> 100
COc1ccc(C2=CSc3cc(Cl)c(C)cc3S(=O)(=O)N2C(C)=O)cc1,33,78.6
COc1ccc(/C=C\c2cc(OC)c3c(c2)OCO3)c(O)c1O,–,4.57
CC(=O)OC1COC(n2c(=S)n(-c3ccc(C)cc3)c(=O)c3ccccc32)C(OC(C)=O)C1OC(C)=O (stereo not given),–,> 100
COc1cccc(NC(=O)CC(=O)n2nc(C)c(N=Nc3ccccc3)c2C)c1,–,> 100
CC[C@@]12CCCN3CC[C@]4(c5cccc(OC)c5N(C(C)=O)[C@@H]4CC1)[C@H]32,–,> 100
CC(=O)[O][Hg][c]1c(N)c(C)cc(C)c1F,1.57,3.11
O=C(O)CCSC(=O)Nc1cccc(F)c1,–,> 100
CCNC1C2(CCCCC2)NC(=O)C12CCCCC2 (stereo not given),–,> 100
O=C1C2=C(SCCS2)C(=O)c2ccccc21,–,3.09
c1cc2c(cc1NC1=NCCO1)CCC2,–,> 10

# Tested on: 786-0 renal
# Assay: NCI-60 cell line screen, 48 h
Structure (SMILES),GI50 [µM],TGI [µM]
NC(CSC(c1ccccc1)(c1ccccc1)c1ccc2c(c1)OCO2)C(=O)O (stereo not given),2.96,> 89.4
C=CCc1cc(OC)c2c(c1)C(O)CC(c1ccc(OC)c(OC)c1)O2 (stereo not given),–,> 100
O=C(NCCNc1nccc(-c2c(-c3cccc(O)c3)nc3sccn23)n1)c1ccccc1O,6.25,43.1
CC(C)=CCCc1c(C)ccc2c1C(=O)C(=O)C(C(C)C)=C2,–,7.07
NS(=O)(=O)c1ccccc1C(=O)N/N=C(\c1nc2ccc([N+](=O)[O-])cc2[nH]c1=O)C(O)c1ccc([N+](=O)[O-])cc1 (stereo not given),–,> 100
N#CC(C#N)=c1ccc(=C2NCC3CCCN23)cc1 (stereo not given),–,> 100
CCOC(=O)COc1cccc2c1C(=O)CCO2,–,> 100
CSc1ccc(/C=C2\CN(C)C/C(=C\c3ccc(SC)cc3)C2=O)cc1,–,> 100
Nc1ccc(C(=O)N/C(=C\c2ccc3c(c2)OCO3)c2nc3[nH]c(=S)[nH]c(=O)c3[nH]2)cc1,–,> 100
COC(=O)[C@@]12C3=NO[C@]1(C(=O)OC)C(O[Si](C)(C)C(C)(C)C)[C@H]1OC(C)(C)O[C@H]1[C@@H]2C(OCc1ccccc1)CC3 (stereo not given in full),–,> 100
O=C(N/C(=C\c1cc(Cl)ccc1Cl)c1nc2[nH]c(=S)[nH]c(=O)c2[nH]1)c1ccccc1,–,32.2
CN(CC(=O)O)S(=O)(=O)c1ccc2ccccc2c1,–,> 100
CCN(CC)CC(C(=O)Nc1c(C)cccc1C)/C(C)=N\NC(=O)C[N+](C)(C)C (stereo not given),–,> 100
CC1=C(C(=O)Nc2ccccc2C)C(c2ccco2)C(C(=O)Nc2ccccc2C)=C(C)N1C,–,> 100
CC(=O)OC(C)C(=O)C1c2cccc(O)c2C(=O)c2c(O)cc(C)cc21 (stereo not given),–,2.28
O=[S@@]1Nc2ccc(Br)cc2S1,–,> 100
CC(=O)C(CN(C(C)C)C(C)C)C(c1ccccc1)c1c(O)c2ccccc2oc1=O (stereo not given),–,> 100
COc1ccc2c(c1)C1(C=N2)CCN(C(C)=O)CC1,–,> 100
NC(CCc1nc(-c2ccc(Cl)cc2)cs1)C(=O)O (stereo not given),–,> 100
O=C1NC2(CCCCC2)C2CCCCC(O)C12 (stereo not given),–,> 100
COc1ccc(-n2/c(=N/C(=S)N(C)C)ss/c2=N\C(=S)N(C)C)cc1,–,> 100
CCOC(=O)C1=C(C)CC2C(=O)OC(=O)C2C1(C)C (stereo not given),–,> 100
Oc1ccc(Cl)cc1-c1cc(-c2ccccc2Cl)[nH]n1,> 100,> 100
CCOC(=O)C(Sc1ccccc1)c1c(OC)cc(=O)oc1/C=[N+](/[O-])c1ccc(N(C)C)cc1 (stereo not given),–,42.4
CNC(=O)c1cc(Oc2ccc3nc(NC(=O)Nc4ccc(Cl)c(C(F)(F)F)c4)sc3c2)ccn1,1.79,3.4
COc1ccc2nc3cc(Cl)ccc3c(Sc3ccccc3[N+](=O)[O-])c2c1,–,> 100
O=C(O)C(Cc1ccccc1)N1C(=O)N/C(=C\c2ccc(F)cc2)C1=O (stereo not given),–,> 100
C/C(CCn1[nH]c(=O)ccc1=O)=N\O,–,> 100
COc1ccccc1NC(=O)CC(=O)n1nc(C)c(N=Nc2ccccc2C(=O)O)c1C,–,> 100
